Source: patent US20140005234A1, “INSECTICIDAL N-SUBSTITUTED SULFILIMINE AND SULFOXIMINE PYRIDINE N-OXIDES” (Dow AgroSciences LLC, priority 2012, published 2014)

Tested on: Green Peach Aphid (GPA)
Assay: Insecticidal testing for Green Peach Aphid (GPA), foliar spray on infested cabbage seedlings
Type: in vivo
Parameters: key to GPA Control @ 200 ppm: A: 80-100; B: More than 0-Less than 80; C: Not Tested; D: No activity noticed in this bioassay
Settings: 200 ppm test compound sprayed on cabbage seedlings infested with GPA; graded after three days; Abbott-corrected % control, qualitative rating
Source text: Insecticidal Testing for Green Peach Aphid (GPA) GPA is the most significant aphid pest of peach trees, causing decreased growth, shriveling of the leaves, and the death of various tissues. It is also hazardous because it acts as a vector for the transport of plant viruses, such as potato virus Y and potato leafroll virus to members of the nightshade/potato family Solanaceae, and various mosaic viruses to many other food crops. GPA attacks such plants as broccoli, burdock, cabbage, carrot, cauliflower, daikon, eggplant, green beans, lettuce, macadamia, papaya, peppers, sweet potatoes, tomatoes, watercress, and zucchini, among other plants. GPA also attacks many ornamental crops such as carnation, chrysanthemum, flowering white cabbage, poinsettia, and roses. GPA has developed resistance to many pesticides. Certain compounds disclosed in this document were tested against GPA using procedures described as follows. Cabbage seedlings grown in 3-inch pots, with 2-3 small (3-5 cm) true leaves, were used as test substrate. The seedlings were infested with 20-50 GPA (wingless adult and nymph stages) one day prior to chemical application. Four pots with individual seedlings were used for each treatment. Test compounds (2 mg) were dissolved in 2 mL of acetone/methanol (1:1) solvent, forming stock solutions of 1000 ppm test compound. The stock solutions were diluted 5× with 0.025% Tween® 20 (Sigma-Aldrich, Inc., St. Louis, Mo.) in H2O to obtain the solution at 200 ppm test compound. A hand-held aspirator-type sprayer was used for spraying a solution to both sides of […] leaves until runoff. Reference plants (solvent check) were sprayed with the diluent only containing 20% by volume of acetone/methanol (1:1) solvent. Treated plants were held in a holding room for three days at approximately 25° C. and ambient relative humidity (RH) prior to grading. Evaluation was conducted by counting the number of live aphids per plant under a microscope. Percent Control was measured by using Abbott's correction formula (W. S. Abbott, “A Method of Computing the Effectiveness of an Insecticide” J. Econ. Entomol. 18 (1925), pp. 265-267) as follows: Corrected % Control=100*(X−Y)/X • where • X=No. of live aphids on solvent check plants and • Y=No. of live aphids on treated plants The results provided in Table 6 below are based on the qualitative ratings set forth in Table 5.

SMILES | GPA Control @ 200 ppm
CC(c1ccc(Cl)[n+]([O-])c1)S(C)(=O)=NC(N)=O (stereo not shown) [(23)] | D
CS(=O)(Cc1ccc(C(F)(F)F)[n+]([O-])c1)=NC(N)=O (stereo not shown) [(22)] | D
CS(=O)(Cc1ccc(Cl)[n+]([O-])c1)=N[N+](=O)[O-] (stereo not shown) [(20)] | D

Same assay, conditions: Myzus persicae, foliar, 72 h; 200 ppm test compound sprayed on cabbage seedlings infested with GPA; graded after three days; Abbott-corrected % control, qualitative rating

SMILES | pest or weed control at 200 ppm [%]
CC(c1ccc(C(F)(F)F)[n+]([O-])c1)S(C)(=O)=NC#N (stereo not drawn) [Compound (6), N-Cyano-S-[1-(6-trifluoromethyl-3-pyridinyl)ethyl]-S-methylsulfoximine N-oxide] | 80 to 100
CC(c1ccc(Cl)[n+]([O-])c1)S(C)(=O)=N[N+](=O)[O-] (stereo not shown) [(18)] | 0 to 80
CC(C)(c1ccc(C(F)(F)F)[n+]([O-])c1)S(C)(=O)=NC#N (stereo not shown) [(10)] | 80 to 100
CS(=O)(Cc1ccc(C(F)(F)F)[n+]([O-])c1)=NC#N (stereo not shown) [(9), [methyl(oxido){[1-oxido-6-(trifluoromethyl)pyridin-3-yl]methyl}-λ^6-sulfanylidene]cyanamide] | 80 to 100
CC(c1ccc(Cl)[n+]([O-])c1)S(C)(=O)=NC#N (stereo not shown) [(19)] | 80 to 100
CC(c1ccc(C(F)(F)F)[n+]([O-])c1)S(C)(=O)=N[N+](=O)[O-] (stereo not shown) [(21)] | 80 to 100
CC(c1ccc(C(F)(F)F)[n+]([O-])c1)/S(C)=N\C#N (stereo not shown) [(5)] | 80 to 100
